Patent publication US20090312385A1, “CANNABINOID RECEPTOR MODULATORS FOR TREATING NON-IMMEDIATE TYPE ALLERGIC DISEASES” (Glenmark Pharmaceuticals, S.A., priority 2007, published 2009)

System: TDI-induced dermatitis in BALB/c mice
Test: toluene-2,4-diisocyanate (TDI) induced dermatitis model, topical treatment of the ear
Type: in vivo, female BALB/c mice
Conditions: for inhibition of various parameters: standard reference compounds, dose not stated
Description: The sensitization protocol was as per W. Baumer et al., J Pharm Pharmacol., 55(8):1107-14 (2003). The abdominal region was shaved and depilated using Veet. Subsequently, the horny layers were stripped 10 times with adhesive tape. For active sensitization, 100 μl of 5% TDI was applied to the stripped skin for 3 consecutive days.
Prescreening was performed 21 days later. In brief, the sensitized mice were challenged with an application of 10 μl of 0.5% TDI on both the inner and outer surface of the left ear, the right ear served as control in each mouse. Ear thickness was measured with a cutimeter (Model7309, Mitutoyo Japan) prior to challenge and 24 hours after challenge. […] Animals were rested for 7 days after prescreening, to allow for the ear thickness to return to normal.
Five groups (A-E) were studied.
On day 28, test compounds. GRC-CPD-A (0.3, 3 and 10%) were prepared using DMSO and acetone in the ratio of 1:9 as solvents. 20 μl (10 μl on each side of the ear) of the formulation was applied to the left ear of each mouse as per the study design 6 hours prior to challenge with TDI. 20 μl of TDI was applied to both inner and outer surface of the left ear of each mouse. The right ear served as control and received an application of 10 μl of acetone on each side. 24 hours post TDI challenge ear thickness was determined and ears were collected for histology and eosinophil peroxidase (EPO) determination. Ear sections were processed for histology and stained with hematoxylin-eosin (HE) and lesions were scored as follows: 0=no cell infiltration or edema, 1-4-granulocyte infiltration/oedema depending on severity. A combined congo-red-toluidine blue staining was also carried out to identify eosinophils which were then quantified per 12 high power fields (hpf). EPO levels in ear sections were determined by standard […] assay using […] as substrate.
All data were expressed as mean±SEM. All groups were subjected to one-way ANOVA and means were compared using Dunnett's post hoc test using GraphPad prism software.

[1] = conclusion, in a dose dependent manner (0.3, 3 and 10% topical)

SMILES | inhibition of various parameters | EPO levels [1] | ear swelling (oedema and eosinophil infiltration) [1] | inhibition of ear swelling (topical application of 10%, 6 hours prior to TDI challenge, ear thickness 24 hours post TDI challenge, FIG. 1) | histological scores (topical application of 10%, HE-stained ear sections, lesion score 0-4, 24 hours post TDI challenge, FIG. 2) | EPO levels in the ear (topical application of 10%, eosinophil peroxidase in ear sections, 24 hours post TDI challenge, FIG. 4) | eosinophil infiltration (topical application of 10%, eosinophils per 12 hpf in ear sections, 24 hours post TDI challenge, FIG. 3)
C=CC[C@@H]1/C=C(\C)C[C@H](C)C[C@H](OC)[C@H]2O[C@@](O)(C(=O)C(=O)N3CCCC[C@H]3C(=O)O[C@H](/C(C)=C/[C@@H]3CC[C@@H](O)[C@H](OC)C3)[C@H](C)[C@@H](O)CC1=O)[C@H](C)C[C@@H]2OC [tacrolimus, reference compound] | significant inhibition | – | – | – | – | – | –
CC(C)(C)NC(=O)c1nn(-c2ccc(F)cc2F)c2c1[C@H]1CC[C@@H]2C1 [GRC-CPD-A, (1R,7S)—N5-(tert-butyl)-3-(2,4-difluorophenyl)-3,4-diazatricylco[5.2.1.0^2,6]deca-2(6),4-diene-5-carboxamide] | – | effectively inhibits | effectively inhibits | significant (p<0.001) dose-dependent inhibition | improved | inhibited | inhibited
C[C@]12CCC(=O)C=C1CC[C@@H]1[C@@H]2[C@@H](O)C[C@@]2(C)[C@H]1CC[C@]2(O)C(=O)CO [hydrocortisone, reference compound] | significant inhibition | – | – | – | – | – | –
